Reference: the NIST ThermoML archive (doi:10.1016/j.jct.2017.03.026)
Several values for one entry are separate records, joined by “and”; a condition that tells them apart may be missing. Identical values can stand only once.

Experiment: molar heat capacity at constant pressure
Settings: 101.33 kPa, Crystal, Small (less than 1 g) adiabatic calorimetry

O.O.O.O.O.O=S(=O)([O-])[O-].[Cu+2] [copper(II) sulfate pentahydrate]
Settings | molar heat capacity at constant pressure
263.9 K | 273.18 J/K/mol
263.97 K | 273.31 J/K/mol
264.29 K | 274.33 J/K/mol
264.46 K | 276.88 J/K/mol
264.57 K | 275.1 J/K/mol
264.65 K | 275.18 J/K/mol
264.69 K | 262.84 J/K/mol
264.78 K | 276.45 J/K/mol
264.88 K | 264.12 J/K/mol
264.96 K | 275.1 J/K/mol
265.24 K | 276.28 J/K/mol
265.28 K | 276.6 J/K/mol
265.59 K | 277.08 J/K/mol
265.9 K | 279.45 J/K/mol
265.91 K | 277.83 J/K/mol and 277.48 J/K/mol
266.22 K | 277.65 J/K/mol
266.54 K | 279.67 J/K/mol
266.57 K | 280.8 J/K/mol
266.85 K | 280.57 J/K/mol
267.02 K | 283.47 J/K/mol
267.12 K | 265.84 J/K/mol
267.16 K | 281.25 J/K/mol
267.24 K | 282.99 J/K/mol
267.47 K | 265.72 J/K/mol
267.48 K | 282.69 J/K/mol
267.49 K | 288.14 J/K/mol
267.79 K | 284.49 J/K/mol
267.89 K | 286.74 J/K/mol
268.1 K | 286.29 J/K/mol
268.14 K | 289.09 J/K/mol
268.41 K | 287.96 J/K/mol
268.56 K | 290.56 J/K/mol
268.72 K | 290.51 J/K/mol
269.03 K | 293.88 J/K/mol
269.21 K | 298.25 J/K/mol
269.26 K | 299.3 J/K/mol
269.34 K | 297.25 J/K/mol
269.69 K | 302.97 J/K/mol
269.86 K | 308.74 J/K/mol
270 K | 267.7 J/K/mol and 309.44 J/K/mol
270.26 K | 267.96 J/K/mol
270.3 K | 319.67 J/K/mol
270.38 K | 339.72 J/K/mol and 332.91 J/K/mol
270.48 K | 333.13 J/K/mol
270.59 K | 334.95 J/K/mol
270.88 K | 351.88 J/K/mol
271.09 K | 383.64 J/K/mol
271.16 K | 376.43 J/K/mol
271.44 K | 383.42 J/K/mol
271.46 K | 344.42 J/K/mol
271.62 K | 269.24 J/K/mol
271.71 K | 298.82 J/K/mol
271.74 K | 277.83 J/K/mol
272.06 K | 278.7 J/K/mol
272.36 K | 280.4 J/K/mol
272.37 K | 278.52 J/K/mol
272.63 K | 281.05 J/K/mol
272.69 K | 278.7 J/K/mol
273.01 K | 279.65 J/K/mol
273.04 K | 280.4 J/K/mol
273.15 K | 269.83 J/K/mol and 270.1 J/K/mol
273.27 K | 284.34 J/K/mol
273.33 K | 280.47 J/K/mol
273.64 K | 279.37 J/K/mol
273.74 K | 281.2 J/K/mol
273.8 K | 282.84 J/K/mol
273.88 K | 270.91 J/K/mol
273.96 K | 280.1 J/K/mol
274.28 K | 278.85 J/K/mol
274.4 K | 281.05 J/K/mol
274.64 K | 282.74 J/K/mol
274.93 K | 283.52 J/K/mol
274.96 K | 280.85 J/K/mol
275.07 K | 282.49 J/K/mol
275.27 K | 285.02 J/K/mol
275.6 K | 285.39 J/K/mol
275.73 K | 282.32 J/K/mol
275.91 K | 281.82 J/K/mol
275.93 K | 272.18 J/K/mol
276.06 K | 284.92 J/K/mol
276.14 K | 271.78 J/K/mol
276.23 K | 282.52 J/K/mol
276.26 K | 287.86 J/K/mol
276.39 K | 283.24 J/K/mol
276.54 K | 281.92 J/K/mol
276.86 K | 283.12 J/K/mol
277.05 K | 284.94 J/K/mol
277.17 K | 283.69 J/K/mol
277.18 K | 287.21 J/K/mol
277.48 K | 283.57 J/K/mol
277.71 K | 285.67 J/K/mol
277.8 K | 284.34 J/K/mol
278.11 K | 284.89 J/K/mol
278.31 K | 288.04 J/K/mol
278.37 K | 287.66 J/K/mol
278.38 K | 274.55 J/K/mol
278.43 K | 285.39 J/K/mol
278.71 K | 274.33 J/K/mol
278.74 K | 285.79 J/K/mol
279.05 K | 283.84 J/K/mol
279.06 K | 284.24 J/K/mol
279.23 K | 285.22 J/K/mol
279.37 K | 283.12 J/K/mol
279.45 K | 283.07 J/K/mol
279.71 K | 282.87 J/K/mol
279.74 K | 283.84 J/K/mol
280 K | 275.2 J/K/mol
280.05 K | 283.69 J/K/mol
280.37 K | 283.64 J/K/mol
280.38 K | 282.97 J/K/mol
280.57 K | 284.27 J/K/mol
280.66 K | 275.03 J/K/mol
280.69 K | 284.49 J/K/mol
281.02 K | 283.67 J/K/mol
281.05 K | 283.87 J/K/mol
281.33 K | 283.77 J/K/mol
281.48 K | 276.46 J/K/mol
281.65 K | 284.82 J/K/mol
281.7 K | 285.57 J/K/mol
281.71 K | 285.19 J/K/mol
281.97 K | 283.94 J/K/mol
282.27 K | 286.17 J/K/mol
282.29 K | 285.04 J/K/mol
282.39 K | 285.19 J/K/mol
282.6 K | 284.74 J/K/mol
282.84 K | 286.54 J/K/mol
282.91 K | 276.63 J/K/mol
282.92 K | 285.39 J/K/mol
283.05 K | 284.89 J/K/mol
283.24 K | 285.54 J/K/mol
283.56 K | 286.89 J/K/mol
283.72 K | 285.69 J/K/mol
283.88 K | 287.24 J/K/mol
283.97 K | 287.54 J/K/mol
284.2 K | 286.71 J/K/mol
284.24 K | 278.43 J/K/mol
284.43 K | 286.89 J/K/mol
284.52 K | 286.41 J/K/mol
284.89 K | 287.61 J/K/mol
285.09 K | 286.69 J/K/mol
285.11 K | 288.04 J/K/mol
285.16 K | 279.3 J/K/mol
285.21 K | 287.79 J/K/mol
285.23 K | 288.34 J/K/mol
285.54 K | 287.61 J/K/mol
285.76 K | 287.46 J/K/mol
285.86 K | 289.01 J/K/mol
286.18 K | 287.86 J/K/mol
286.25 K | 289.39 J/K/mol
286.42 K | 287.76 J/K/mol
286.51 K | 286.29 J/K/mol
286.83 K | 288.26 J/K/mol
287 K | 280.48 J/K/mol
287.09 K | 288.31 J/K/mol
287.16 K | 288.41 J/K/mol
287.4 K | 289.81 J/K/mol
287.46 K | 280.82 J/K/mol
287.49 K | 289.64 J/K/mol
